From PubChem BioAssay AID248 (DTP/NCI, 2004)
Several values for one entry are separate records, joined by “and”; a condition that tells them apart may be missing. Identical values can stand only once. Toxic doses and inconclusive results are not listed.

Test system: L1210 leukemia ip in BDF1 mice, survival T/C
Experiment: NCI In Vivo Anticancer Drug Screen. Data for tumor model L1210 Leukemia (intraperitoneal) in B6D2F1 (BDF1) mice
Conditions: endpoint: mean survival time, higher = longer survival
How it was run: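 Mice bearing the transplanted tumor received compound or vehicle. Survival of the treated group was divided by that of the vehicle-treated control group to give the ratio.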

[1] = dose: 100.0 mg/kg/injection, schedule: Q04DX003 (ip), vehicle: saline
[2] = dose: 200.0 mg/kg/injection, schedule: Q04DX003 (ip), vehicle: saline
[3] = dose: 100.0 mg/kg/injection, schedule: Q04DX003 (ip), vehicle: saline with Tween-80
[4] = dose: 400.0 mg/kg/injection, schedule: Q04DX003 (ip), vehicle: saline with Tween-80
[5] = dose: 100.0 mg/kg/injection, schedule: Q01DX001 (ip), vehicle: saline
[6] = dose: 200.0 mg/kg/injection, schedule: Q04DX003 (ip), vehicle: saline with Tween-80
[7] = dose: 100.0 mg/kg/injection, schedule: Q01DX009 (ip), vehicle: Klucel (hydroxypropylcellulose) (HPC)
[8] = dose: 200.0 mg/kg/injection, schedule: Q01DX009 (ip), vehicle: Klucel (hydroxypropylcellulose) (HPC)
[9] = dose: 400.0 mg/kg/injection, schedule: Q01DX009 (ip), vehicle: Klucel (hydroxypropylcellulose) (HPC)
[10] = dose: 100.0 mg/kg/injection, schedule: Q01DX009 (ip), vehicle: saline
[11] = dose: 200.0 mg/kg/injection, schedule: Q01DX009 (ip), vehicle: saline
[12] = dose: 400.0 mg/kg/injection, schedule: Q01DX009 (ip), vehicle: saline
[13] = dose: 100.0 mg/kg/injection, schedule: Q01DX001 (ip), vehicle: gum acacia
[14] = dose: 200.0 mg/kg/injection, schedule: Q01DX001 (ip), vehicle: gum acacia
[15] = dose: 400.0 mg/kg/injection, schedule: Q01DX001 (ip), vehicle: gum acacia
[16] = dose: 200.0 mg/kg/injection, schedule: Q01DX001 (ip), vehicle: saline

Nc1nc(N)c2nc(CN(CCO)c3ccc(C(=O)NC(CCC(=O)O)C(=O)O)cc3)cnc2n1 (configuration not stated)
T/C (dose: 1.0 mg/kg/injection, schedule: Q01DX009 (ip), vehicle: sodium bicarbonate): 151 % of control | T/C (dose: 2.0 mg/kg/injection, schedule: Q01DX009 (ip), vehicle: Klucel (hydroxypropylcellulose) (HPC)): 174 % of control | T/C (dose: 2.0 mg/kg/injection, schedule: Q01DX009 (ip), vehicle: sodium bicarbonate): 172 % of control | T/C (dose: 4.0 mg/kg/injection, schedule: Q01DX009 (ip), vehicle: Klucel (hydroxypropylcellulose) (HPC)): 160 % of control | T/C (dose: 4.0 mg/kg/injection, schedule: Q01DX009 (ip), vehicle: sodium bicarbonate): 178 % of control | T/C (dose: 8.0 mg/kg/injection, schedule: Q01DX009 (ip), vehicle: Klucel (hydroxypropylcellulose) (HPC)): 151 % of control | T/C (dose: 8.0 mg/kg/injection, schedule: Q01DX009 (ip), vehicle: sodium bicarbonate): 113 % of control | T/C (dose: 16.0 mg/kg/injection, schedule: Q01DX009 (ip), vehicle: Klucel (hydroxypropylcellulose) (HPC)): 108 % of control | T/C (dose: 16.0 mg/kg/injection, schedule: Q01DX009 (ip), vehicle: sodium bicarbonate): 89 % of control | T/C (dose: 32.0 mg/kg/injection, schedule: Q01DX009 (ip), vehicle: Klucel (hydroxypropylcellulose) (HPC)): 96 % of control

Cc1ccc(S(=O)(=O)C[n+]2cc(C)cc(C)c2)cc1
T/C [1]: 95 % of control | T/C [2]: 103 % of control

COc1cc(OC)c2c(=O)c3ccccc3[nH]c2c1
T/C [3]: 87 % of control | T/C [4]: 88 % of control

Cc1ccc(S(=O)(=O)C2CCCCC2)cc1
T/C (dose: 50.0 mg/kg/injection, schedule: Q01DX001 (ip), vehicle: carboxymethylcellulose (CMC)): 96 % of control | T/C (dose: 100.0 mg/kg/injection, schedule: Q01DX001 (ip), vehicle: carboxymethylcellulose (CMC)): 107 % of control | T/C (dose: 200.0 mg/kg/injection, schedule: Q01DX001 (ip), vehicle: carboxymethylcellulose (CMC)): 102 % of control | T/C (dose: 400.0 mg/kg/injection, schedule: Q01DX001 (ip), vehicle: carboxymethylcellulose (CMC)): 102 % of control

NC(CSCc1ccccc1)(CSCc1ccccc1)C(=O)O
T/C (dose: 25.0 mg/kg/injection, schedule: Q01DX009 (ip), vehicle: other): 107 % of control | T/C (dose: 50.0 mg/kg/injection, schedule: Q01DX009 (ip), vehicle: other): 105 % of control | T/C (dose: 100.0 mg/kg/injection, schedule: Q01DX009 (ip), vehicle: other): 100 % of control | T/C (dose: 200.0 mg/kg/injection, schedule: Q01DX009 (ip), vehicle: other): 91 % of control | T/C (dose: 400.0 mg/kg/injection, schedule: Q01DX009 (ip), vehicle: other): 113 % of control

CC(=O)/C(=C\c1ccccc1)CNC(C)(C)C
T/C [5]: 92 % of control

O=[N+]([O-])c1ccc(/C=C/C=C\c2ccc(S(=O)(=O)F)cc2Cl)cc1
T/C (dose: 100.0 mg/kg/injection, schedule: Q04DX003 (ip), vehicle: Klucel (hydroxypropylcellulose) (HPC)): 96 % of control | T/C (dose: 200.0 mg/kg/injection, schedule: Q04DX003 (ip), vehicle: Klucel (hydroxypropylcellulose) (HPC)): 92 % of control | T/C (dose: 400.0 mg/kg/injection, schedule: Q04DX003 (ip), vehicle: Klucel (hydroxypropylcellulose) (HPC)): 96 % of control

CC(=O)N(C)c1ccc(C)cc1C
T/C [3]: 104 % of control | T/C [6]: 98 % of control | T/C [4]: 93 % of control

CCOC(=O)c1ccc(NC(=S)NC(=O)C(C)Oc2ccccc2)cc1 (configuration not stated)
T/C (dose: 100.0 mg/kg/injection, schedule: Q01DX001 (ip), vehicle: saline with Tween-80): 102 % of control | T/C (dose: 100.0 mg/kg/injection, schedule: Q01DX009 (ip), vehicle: saline with Tween-80): 92 % of control and 103 % of control | T/C (dose: 100.0 mg/kg/injection, schedule: Q04DX002 (ip), vehicle: saline with Tween-80): 93 % of control and 106 % of control | T/C [3]: 93 % of control | T/C (dose: 200.0 mg/kg/injection, schedule: Q01DX001 (ip), vehicle: saline with Tween-80): 94 % of control | T/C (dose: 200.0 mg/kg/injection, schedule: Q01DX009 (ip), vehicle: saline with Tween-80): 99 % of control and 112 % of control | T/C (dose: 200.0 mg/kg/injection, schedule: Q04DX002 (ip), vehicle: saline with Tween-80): 93 % of control and 106 % of control | T/C [6]: 93 % of control | T/C (dose: 400.0 mg/kg/injection, schedule: Q01DX001 (ip), vehicle: saline with Tween-80): 108 % of control | T/C (dose: 400.0 mg/kg/injection, schedule: Q01DX009 (ip), vehicle: saline with Tween-80): 97 % of control and 100 % of control | T/C (dose: 400.0 mg/kg/injection, schedule: Q04DX002 (ip), vehicle: saline with Tween-80): 92 % of control and 93 % of control

FC(F)(F)c1cccc(NC(=S)N2CCOCC2)c1
T/C [7]: 98 % of control | T/C [8]: 104 % of control | T/C [9]: 96 % of control

CCOC(=O)C(O)(CC)CC
T/C [10]: 96 % of control | T/C [1]: 93 % of control | T/C [11]: 101 % of control | T/C [2]: 93 % of control | T/C [12]: 102 % of control | T/C (dose: 400.0 mg/kg/injection, schedule: Q04DX003 (ip), vehicle: saline): 95 % of control

CCOC(=O)CCSc1ccc(NC)cc1
T/C [10]: 94 % of control | T/C (dose: 100.0 mg/kg/injection, schedule: Q04DX003 (ip), vehicle: acetone): 102 % of control | T/C [11]: 96 % of control | T/C (dose: 200.0 mg/kg/injection, schedule: Q04DX003 (ip), vehicle: acetone): 102 % of control | T/C [12]: 97 % of control | T/C (dose: 400.0 mg/kg/injection, schedule: Q04DX003 (ip), vehicle: acetone): 105 % of control

CC(c1ccc2ccccc2c1)c1ccccc1C(=O)O (configuration not stated)
T/C [13]: 94 % of control | T/C [14]: 102 % of control | T/C [15]: 89 % of control

O=[N+]([O-])c1cc(/C=N/NC(=S)NC23CC4CC(CC(C4)C2)C3)ccc1Cl
T/C (dose: 75.0 mg/kg/injection, schedule: Q01DX001 (ip), vehicle: other): 97 % of control | T/C (dose: 150.0 mg/kg/injection, schedule: Q01DX001 (ip), vehicle: other): 89 % of control | T/C (dose: 300.0 mg/kg/injection, schedule: Q01DX001 (ip), vehicle: other): 91 % of control

NC(N)=N/N=C\c1ccccc1/C=N/N=C(N)N
T/C (dose: 15.0 mg/kg/injection, schedule: Q01DX Z (ip), vehicle: saline): 111 % of control | T/C (dose: 15.0 mg/kg/injection, schedule: Q01DX Z (oral), vehicle: saline): 116 % of control | T/C (dose: 30.0 mg/kg/injection, schedule: Q01DX Z (ip), vehicle: saline): 110 % of control | T/C (dose: 30.0 mg/kg/injection, schedule: Q01DX Z (oral), vehicle: saline): 111 % of control | T/C (dose: 60.0 mg/kg/injection, schedule: Q01DX Z (oral), vehicle: saline): 102 % of control | T/C (dose: 120.0 mg/kg/injection, schedule: Q01DX Z (oral), vehicle: saline): 111 % of control

Cn1c(N)c(N=CC2CCCCC2)c(=O)n(C)c1=O
T/C [5]: 100 % of control | T/C [16]: 100 % of control | T/C (dose: 400.0 mg/kg/injection, schedule: Q01DX001 (ip), vehicle: saline): 102 % of control

C=CCC(OC(=O)Nc1ccc(Cl)cc1)C1OC(c2ccccc2)OC2COC(c3ccccc3)OC21 (configuration not stated)
T/C [13]: 91 % of control | T/C [14]: 91 % of control | T/C [15]: 93 % of control

CCCCNC(=O)CCl
T/C [5]: 96 % of control | T/C [16]: 113 % of control

CCCCCCCCCCNc1ccc(Cl)nn1
T/C [3]: 93 % of control | T/C [6]: 93 % of control | T/C [4]: 90 % of control

Cc1ccc(NC(=S)N2CCCCC2)cc1C
T/C [7]: 92 % of control | T/C [8]: 93 % of control | T/C [9]: 101 % of control

Brc1cccc[n+]1CCCC[n+]1ccccc1Br
T/C (dose: 2.2 mg/kg/injection, schedule: Q01DX Z (ip), vehicle: saline): 96 % of control | T/C (dose: 3.3 mg/kg/injection, schedule: Q01DX Z (ip), vehicle: saline): 100 % of control | T/C (dose: 5.0 mg/kg/injection, schedule: Q01DX Z (ip), vehicle: saline): 87 % of control | T/C (dose: 10.0 mg/kg/injection, schedule: Q01DX001 (ip), vehicle: saline): 96 % of control | T/C (dose: 20.0 mg/kg/injection, schedule: Q01DX001 (ip), vehicle: saline): 93 % of control
